Test system: Erdnußlectin (Arachis Hypogea)
Assay: Inhibition of peanut lectin haemagglutination of neuraminidase-treated erythrocytes
Assay type: cell-based
Conditions: compound at 0,5 mg/ml; erythrocytes as 2,5% suspension; lectin titer 2-^8
Experimental: Inhibition von Erdnußlectin (Arachis Hypogea) mit Verbindung 29
Die Hämagglutination von Neuraminidase(VCN)-behandelten Erythrozyten (als 2,5%-ige Suspension) mit Erdunßlectin (Titer 2-^8) wurde vollständig mit Verbindung 29 (0,5 mg/ml) inhibiert.

CC(=O)N[C@H]1[C@@H](OC(=O)N[C@@H](CO)C(=O)NCCCCCC(=O)O)O[C@H](CO)[C@H](O)[C@@H]1O[C@@H]1O[C@H](CO)[C@H](O)[C@H](O)[C@H]1O [Verbindung 29, N-((2-Acetamido-2-desoxy-3-0-(8-D-galactopyranosyl)-alpha-D-galactopyranosyl)-oxycarbonyl)-L-seryl-S-carboxy-pentylamid]
Hämagglutination von Neuraminidase(VCN)-behandelten Erythrozyten mit Erdunßlectin inhibiert: vollständig

Source: patent EP0176913A2, “Glycourethane derivatives, methods for their preparation and their use” (BEHRINGWERKE Aktiengesellschaft, priority 1984, dated 1986)
